From patent US20040186052A1, “Cytomodulating peptides and methods for treating neurological disorders” (priority 2002, published 2004)

Tests used:
[1] = system: neuronal subtypes deprived of trophic support; details: cited from earlier work
retinal ganglion cells = details: following axotomy of the optic nerve; cited from earlier work
primary neurons = details: cited from earlier work
[2] = system: experimental autoimmune encephalomyelitis (EAE); experiment: Acute EAE in Lewis rats, daily clinical scoring; format: in vivo; details: intracerebroventricular administration (Table I, FIG. 7)
Body weight in EAE rats = format: in vivo, Lewis rats; details: 50, 15, or 5 mg by icv injection ten days after immunization; % body weight vs starting point
TNFα mRNA = experiment: Cytokine mRNA in brain of EAE rats by real-time RT-PCR; format: in vivo, Lewis rats; details: brain RNA thirteen days after immunization, RDP58- vs Mannitol-treated, n=9, P<0.05
Procedure: Animals were sacrificed for molecular analysis at post onset day 5. Brains and spinal cords were removed and frozen in liquid nitrogen, then stored at −80° C. until ready for use. The tissues were subsequently homogenized in 700 μl of a guanidinium isothiocyanate solution containing 49 μl β-mercaptoethanol using an Ultraturrax tissue homogenizer (Jahnke and Kunkel, Staufen i. Breisgau, Germany). Total RNA was extracted by using the Absolutely RNA™ RT-PCR Miniprep Kit (Stratagene, La Jolla, USA) and its quality and quantity was determined with the Agilent 2100 Bioanalyzer System (Agilent Technologies, Palo Alto, USA). […]
To measure cytokine mRNA levels, the expression of each gene transcript was analyzed by real-time PCR using the ABI PRISM 7700 Sequence Detection System (TaqMan™, Perkin-Elmer Biosystems, Weiterstadt, Germany). […]
The PCR reaction was performed in a final volume of 25 μl containing 1 μl cDNA, 12.5 μl Master Mix (TaqMan™ Universal PCR Master Mix, Perkin Elmer, Applied Biosystems, Weiterstadt, Germany), 1 μl fluorogenic hybridization probe, […], and 5.5 μl distilled water. […] The mean Ct values for beta-actin and the cytokines were calculated from duplicate reactions. […]

NGF-dependent neurons = experiment: Apoptosis of NGF-dependent neurons after NGF deprivation (TUNEL); format: cell-based; details: media lacking NGF and containing anti-NGF antibody
Procedure: NGF-dependent neurons are maintained in vitro in media containing NGF. The cells are washed and the media containing NGF is replaced with media lacking NGF and containing anti-NGF antibody. One sample is incubated in the presence of RDP-58, the other in the absence of RDP-58. Apoptosis is measured in the two samples, for example, by TUNEL labeling. RDP-58 inhibits neuronal apoptosis in NGF-dependent neurons induced by NGF deprivation.

[3] = rheumatoid arthritis patients; cited from earlier work
MS = details: in vivo; cited from earlier work
[4] = system: ChAT neurons of the nucleus basalis; details: following insult with ibotenic acid; cited from earlier work
[5] = system: dopaminergic neurons in the substantia nigra; details: MPTP model; cited from earlier work
[6] = system: hair cell and cochlear neuron; details: associated with trauma; cited from earlier work
[7] = system: relapsing-remitting form of MS; details: patients with relapsing-remitting MS; cited from earlier work
[8] = in vivo; cited from earlier work
Parkinson's disease = details: direct infusion into the putamen; cited from earlier work

Oc1ccc(-c2nc(-c3ccncc3)c(-c3ccc(F)cc3)[nH]2)cc1 [SB202190]
survival of neuronal subtypes [1]: promote survival

C[S+]([O-])c1ccc(-c2nc(-c3ccncc3)c(-c3ccc(F)cc3)[nH]2)cc1 (stereo not shown) [SB203580]
survival of neuronal subtypes [1]: promote survival | retinal ganglion cell death (retinal ganglion cells): reduced | NO toxicity (primary neurons): inhibits

Arg-nL-nL-nL-Arg-nL-nL-nL-Gly-Tyr [RDP58]
disease index [2]: reducing | incidence [2]: reducing | mean clinical scores [2]: reducing | severity [2]: reducing | change in body weight associated with EAE induction (Body weight in EAE rats): reduces | TNFα mRNA level in brain (TNFα mRNA): significantly reduced | neuronal apoptosis induced by NGF deprivation (NGF-dependent neurons): inhibits

Infliximab: anti-TNF monoclonal antibody
demyelinating disease symptoms [3]: correlated with incidences of demyelinating disease symptoms in some patients

Cc1ccc(=O)n(-c2ccccc2)c1 [Pirfenidone]
progression of MS (MS): slow | symptoms of MS (MS): reduce

CCSCc1ccc2c(c1)c1c3c(c4c5cc(CSCC)ccc5n5c4c1n2[C@H]1C[C@](O)(C(=O)OC)[C@]5(C)O1)CNC3=O [CEP-1347]
functional deficits [4]: reduces | survival of ChAT neurons of the nucleus basalis [4]: promotes | survival of dopaminergic neurons in the substantia nigra [5]: promotes | functional deficits [6]: reduce | hair cell and cochlear neuron death [6]: prevent

glatiramer acetate
disease episodes [7]: reductions

CN(C)c1ccc(O)c2c1C[C@H]1C[C@H]3[C@H](N(C)C)C(O)=C(C(N)=O)C(=O)[C@@]3(O)C(O)=C1C2=O [minocycline]
penetration of the blood-brain-barrier [8]: limited

B1: GDNF: glial cell line-derived neurotrophic factor (protein, UniProt P39905 78-211, looked up)
Glial cell line-derived …: SPDKQMAVLPRRERNRQAAAANPENSRGKGRRGQRGKNRGCVLTAIHLNVTDLGLGYETKEELIFRYCSGSCDAAETTYDKILKNLSRNRRLVSDKVGQACCRPIAFDDDLSFLDDNLVYHILRKHSAKRCGCI
patients' performance (Parkinson's disease): improve
